For assay [1], the system named is P450aluC09. Put plainly: Cell-free hydroxylase activity of lyophilised recombinant P450aluC09-ferredoxinaluF03-ferredoxin reductaseSCF15A, conversion by UPLC-MS. The assay is classed as biochemical, Amycolatopsis lurida. Conditions: 16-20 hours; for hydroxylase activity (conversion to hydroxylated product): 0.1 mg/ml substrate. As for the experimental part:
Lyophilised material of recombinant P450aluC09, ferredoxinaluF03 and ferredoxin reductaseSCF15A was made as described in examples 5 and 6 and suspended in water to a final concentration of 2.9 μM of P450aluC09 and 919 UN of ferredoxin reductaseSCF15A. […] 50 mM potassium phosphate pH 7.4, 5 mM MgCl2, 0.1 mg/ml substrate compound such as bosentan (CarboSynth Ltd, UK), buparvaquone (MedChemtronica, Sweden), BIRB796 (Stratech Scientific Limited, UK), diclofenac (Sigma-Aldrich, UK), epothilone B (LC Laboratories, USA) or ritonavir (TCI, UK), tivantinib (MedChemtronica, Sweden), 2.4 μM of P450AluC09, 767 UN of ferredoxin reductaseSCF15A, 5 mM G6P, 1 mM NADP, 2 UN/ml G6PDH in a final volume of 100 μL. After 16-20 hours, reactions were extracted with an equal volume of acetonitrile, centrifuged to remove precipitated proteins and conversion assessed by UPLC-MS analysis.
The method in Example 7 was followed except for the buffer exchange section. Four different buffers were chosen: a) 50 mM Acetate pH 5, 100 mM NaCl, 5 mM MgCl2; b) 50 mM potassium phosphate pH7.5, 5 mM MgCl2; c) 50 mM Tris pH 8, 100 mM NaCl, 5 mM MgCl2; d) 50 mM Piperidine pH11, 100 mM NaCl, 5 mM MgCl2. For each buffer condition 1.5 ml of resuspended lyophilised crude extract was exchanged using Vivaspin 20K cut off by performing 3 cycles of concentration and then dilution of the material with the new buffer. Exchanging in 50 mM potassium phosphate pH7.5, 5 mM MgCl2, the usual buffer for preparing and assessment of the enzyme preparations, provided the control for the robustness of the material during the buffer exchange process. […] Of particular note is the activity of this recombinant enzyme at such elevated pH values e.g., pH value of 11. […] Other advantages of catalysis at higher pH are the ability to directly utilise the product from a prior step resulting in such products, such as chemical synthesis, base-catalysed hydrolysis of a feedstock, or reaction product from another enzyme where increasing pH has been used to stop that reaction

In assay [2] the test system is P450aluC09. Put plainly: Whole-cell biocatalysis (hydroxylation) by recombinant E. coli expressing P450aluC09 with redox partners. The class given is cell-based, Amycolatopsis lurida. As for the experimental part: The recombinant expression strains E. coli BL21 Star (DE3) pLysS with pQR368bb-aluC09-aluF03 and E. coli BL21 Star (DE3) pLysS with p3C.1-AluC09-AluF03 were cultured in Terrific Broth media as in Example 5 and gene expression was induced by adding IPTG to reach the final concentration of 1 mM. The culture was supplemented with FeSO4 and 5′-aminolevulinic acid as in Example 5.
(§1) After four hours of incubation at 27° C. and 200 rpm, 2.5 mL of induced culture was dosed with 10 μL of either bosentan or diclofenac (25 mg/mL each) in a 24-well block (Enzyscreen). The whole-cell biocatalysis reaction was allowed to further incubate for 24 hours at 30° C. and 300 rpm. The reaction was stopped with an equal amount of acetonitrile and conversion assessed by UPLC-MS analysis in a similar manner to that described in Example 7.

In assay [3] the test system is P450aluC09 fused in-frame with the reductase domain of P450BM3. Description: Whole-cell biocatalysis by E. coli expressing P450aluC09 fused with the reductase domain of P450BM3. As to conditions: pET21a-AluC09_BM3, E. coli BL21 Star (DE3) pLysS. The assay is classed as cell-based, Amycolatopsis lurida / Bacillus megaterium. As for the experimental part:
as §1
The P450aluC09 was engineered to fuse in-frame to the reductase domain of P450BM3 from Bacillus megaterium in a similar manner described in Scheps et al. Microb Biotechnol. 2013; 6(6):694-707.
Whole-cell hydroxylating activity of E. coli BL21 Star (DE3) pLysS with either pQR368bb-aluC09-aluF03 or pET21a-AluC09_BM3 plasmid were compared against the substrates bosentan and diclofenac in a similar manner described in Example 10.

In assay [4] the test system is P450aluC09. Description: Whole-cell biocatalysis (hydroxylation) by recombinant E. coli expressing P450aluC09 with redox partners. The assay is classed as cell-based, Amycolatopsis lurida. This is another data set of the same source.
Where [5] appears, read: Ampicillin resistant strain (pQR368bb-aluC09-aluF03), E. coli BL21 Star (DE3) pLysS.
Setting [6] is: High copy number strain (p3C.1-AluC09-AluF03), E. coli BL21 Star (DE3) pLysS, 24 hours 30° C.
[7] abbreviates: Medium copy number strain (pQR368bb-aluC09-aluF03), E. coli BL21 Star (DE3) pLysS, 24 hours 30° C.
Where [8] appears, read: Native ferredoxinaluF03 (p3C.1-AluC09-AluF03), E. coli BL21 Star (DE3) pLysS.
Where [9] appears, read: ferredoxinaluF03 and ferredoxin reductaseSCF15A (pQR368bb-aluC09-aluF03), E. coli BL21 Star (DE3) pLysS, Table 7 comparison.
The mark [10] stands for this setting: host E. coli BL21 Star (DE3) pLysS, pQR368bb-aluC09-aluF03.
Setting [11] is: Ferredoxinfd1 from S. griseus 11796 (p3C-AluC09), E. coli BL21 Star (DE3) pLysS.
[12] abbreviates: Kanamycin resistant strain (pHD02-AluC09-AluF03), E. coli BL21 Star (DE3) pLysS.
Where [13] appears, read: host E. coli BL21 (DE3) pLysS, pQR368bb-aluC09-aluF03.
Where [14] appears, read: host E. coli BL21 (DE3), pQR368bb-aluC09-aluF03.
[15] abbreviates: host E. coli BL21 Star (DE3), pQR368bb-aluC09-aluF03.
Where [16] appears, read: pH values of 7.5 and above (pH 8-11).

Molecules are shown by their SMILES.

Consider `O=C(O)Cc1ccccc1Nc1c(Cl)cc(O)cc1Cl` [4′-HO-Diclofenac, 4′-hydroxydiclofenac], for which the “hydroxylase activity (conversion to hydroxylated product)” value in the assay on P450aluC09 [1] (10° C.) turned out to be 14%; in the assay with P450aluC09 [1] (22° C.), 16%; with P450aluC09 [1] (27° C. (standard condition)) it was 21%; with P450aluC09 [1] (37° C.), 13%. Moreover, the “% yield of parent-derived products” value turned out to be 7.5% in the assay with P450aluC09 [2] (setting [5]); 8.7% in the assay with P450aluC09 [2] (setting [6]); 27.4% in the assay on P450aluC09 [2] (setting [7]); 60.3% in the assay on P450aluC09 [2] (setting [8]); 46.0% in the assay with P450aluC09 [2] (setting [9]); 7.5% in the assay with P450aluC09 [2] (setting [10]). In addition, the “% yield of parent-derived products” value in assay [3] was 4.7%; in the assay on P450aluC09 [4] (setting [11]), 11.5%; in the assay with P450aluC09 [4] (setting [12]), 6.0%; in the assay with P450aluC09 [4] (setting [13]) it was 11.3%; with P450aluC09 [4] (setting [14]), greater than 1%; in the assay with P450aluC09 [4] (setting [15]), 1.5%.
On to `O=C(O)Cc1cc(O)ccc1Nc1c(Cl)cccc1Cl` [5-HO-Diclofenac, 5-hydroxydiclofenac], for which the “hydroxylase activity (conversion to hydroxylated product)” value in the assay on P450aluC09 [1] (10° C.) turned out to be 17%; in the assay on P450aluC09 [1] (22° C.) it was 14%; in the assay on P450aluC09 [1] (27° C. (standard condition)), 12%; in the assay on P450aluC09 [1] (37° C.), 1%. The “% yield of parent-derived products” value stood at 35.2% in the assay with P450aluC09 [2] (setting [5]); 23.8% with P450aluC09 [2] (setting [6]); 60.3% with P450aluC09 [2] (setting [7]); 23.8% in the assay on P450aluC09 [2] (setting [8]); 12.4% with P450aluC09 [2] (setting [9]); 35.2% in the assay on P450aluC09 [2] (setting [10]). Besides, the “% yield of parent-derived products” value in assay [3] was less than 1%; with P450aluC09 [4] (setting [11]) it was 4.2%; with P450aluC09 [4] (setting [12]), 48.1%; in the assay with P450aluC09 [4] (setting [13]), 45.1%; with P450aluC09 [4] (setting [14]) it was 10.3%; in the assay on P450aluC09 [4] (setting [15]), 6.5%.
With `COc1ccccc1Oc1c(NS(=O)(=O)c2ccc(C(C)(C)CO)cc2)nc(-c2ncccn2)nc1OCCO` [HO-Bosentan], the “hydroxylase activity (conversion to hydroxylated product)” value in the assay with P450aluC09 [1] (10° C.) is recorded as 91%; with P450aluC09 [1] (22° C.) it was 64%; with P450aluC09 [1] (27° C. (standard condition)), 86%; in the assay with P450aluC09 [1] (37° C.), 33%; in the assay with P450aluC09 [1] (45° C.), 19%. Besides, the “% yield of parent-derived products” value with P450aluC09 [2] (setting [5]) was determined as 26.6%; with P450aluC09 [2] (setting [6]) it was 18.2%; in the assay with P450aluC09 [2] (setting [7]), 52.6%; with P450aluC09 [2] (setting [8]) it was 52.6%; in the assay with P450aluC09 [2] (setting [9]), 29.5%; in the assay on P450aluC09 [2] (setting [10]), 26.6%. Also, the “% yield of parent-derived products” value in assay [3] worked out at 9.3%; with P450aluC09 [4] (Ferredoxin reductasecamA and ferredoxincamB from P. putida (pHD02-AluC09-PdR-PdX), E. coli BL21 (DE3)), 21.2%; with P450aluC09 [4] (setting [11]), 6.3%; in the assay with P450aluC09 [4] (setting [12]) it was 41.6%; with P450aluC09 [4] (ferredoxinaluF03 and ferredoxin reductaseSCF15A (pHD02-AluC09-AluF03), E. coli BL21 (DE3)) it was 27.4%; in the assay with P450aluC09 [4] (setting [13]), 34.1%. Also, the “% yield of parent-derived products” value with P450aluC09 [4] (setting [14]) was 13.6%; in the assay with P450aluC09 [4] (setting [15]), 9.1%.
`COc1ccccc1Oc1c(NS(=O)(=O)c2ccc(C(C)(C)C)cc2)nc(-c2ncccn2)nc1OCCO` [bosentan, reference compound]: the results for the “hydroxylase activity on the substrate at reaction pH” value in the assay on P450aluC09 [1] (pH5 (50 mM Acetate)) and in the assay with P450aluC09 [1] (setting [16]) were “only barely detectable” and “remain”, respectively.
In the same order, the values of `O=C(O)Cc1ccccc1Nc1c(Cl)cccc1Cl` [diclofenac, reference compound] are “only barely detectable” and “remain”.
Consider `CC(C)[C@H](NC(=O)N(C)Cc1csc(C(C)(C)O)n1)C(=O)N[C@@H](Cc1ccccc1)C[C@H](O)[C@H](Cc1ccccc1)NC(=O)OCc1cncs1` [ε-HO-Ritonavir, ε-HO—N-methylisopropylthiazoloylmethyl-ritonavir], for which the “hydroxylase activity (conversion to hydroxylated product)” value with P450aluC09 [1] (10° C.) stood at 36%; in the assay on P450aluC09 [1] (22° C.) it was 36%; with P450aluC09 [1] (27° C. (standard condition)), 34%; in the assay with P450aluC09 [1] (37° C.), 19%.

The values are drawn from US11384371B2, “Hydroxylation of branched aliphatic or aromatic substrates employing the amycolatopsis lurida cytochrome P450” (HYPHA DISCOVERY LIMITED, priority 2016, dated 2022).
